Patent US10328093B2, “Anthracycline formulations” (CYTRX CORPORATION, priority 2012, dated 2019)

Test: IV Admixture stability in LR at approximately 2.4 mg/mL after reconstitution
Format: physicochemical
Settings: for pH drop: from zero to two hours
Protocol: To analyze DOXO-EMCH's behavior in solution, a reversed-phase (RP) HPLC method for quantitation of DOXO-EMCH and various impurities and degradation products was utilized. Samples (1.0 μL injection volume) were assayed on an HPLC system fitted with a Phenomenex Gemini C18 column 100×2.0 mm, 3 μm at a flow rate of 0.3 mL/min. The mobile phase used was an acetate/acetonitrile gradient. The degradation product EMCH could not be detected using the above HPLC method, and was therefore determined using a liquid chromatography-mass spectrometry (LC-MS) method.
IV Admixture stability studies were designed to use the reconstitution diluent found suitable in part 1 following the procedure outlined below. Briefly, to prepare an IV Admixture solution containing approximately 2.4 mg/mL DOXO-EMCH, the required volume for reconstitution was withdrawn from the IV infusion solution bag intended for final administration. The required volume for reconstitution of the respective diluent was measured and transferred into a vial of lyophilized DOXO-EMCH. The vial of DOXO-EMCH and diluent was gently swirled to dissolve the vial contents and obtain a homogeneous mixture. The reconstituted solution of drug product was inspected to ensure that the drug was completely dissolved and that no foreign matter was present. This procedure was repeated for the total number of vials required to prepare the calculated dose of DOXO-EMCH in IV infusion solution. The required volume of reconstituted DOXO-EMCH solution was then withdrawn from the drug product vials using a suitably sized syringe, and injected into the IV infution solution bag. The contents of the IV infusion solution bag were thoroughly mixed to obtain a homogeneous mixture. The IV infusion bag was then stored at room temperature and protected from light.
The IV Admixture study was performed by first removing 3 vials of 200 mg lyophilized DOXO-EMCH drug product from storage at −20° C. and allowing the vials to come to room temperature. […] Each of the vials was reconstituted as described above. The required volume of the reconstitution diluent (20 mL) was drawn into an appropriate plastic syringe using a needle and injected through the stopper of each vial. The reconstituted vial was then swirled and visually inspected for complete reconstitution to form a clear, homogeneous solution. The time required to form a clear, homogeneous solution was recorded. The required volume (20.0 mL of a 10 mg/mL constituted solution) was transferred from each reconstituted vial into the 250 mL IV Admixture solution as described above. Briefly, the required volume (20.0 mL of a 10 mg/mL constituted solution) was withdrawn using an appropriate plastic syringe and needle, the required volume of constituted drug product was transferred from each of three vials into the 250 mL IV Admixture using an appropriate plastic syringe and needle, and the contents of the IV Admixture were completely mixed to obtain a homogeneous mixture at a target concentration of approximately 2.4 mg/mL. The IV bag was weighed prior to injection of constituted drug product. […] solution, diluting with chilled HPLC method diluent to achieve a target concentration of 0.24 mg/mL, and injecting into the HPLC. Duplicate injections were made for each time point. The pH of the IV Admixture and sample prepared for HPLC analysis were also measured at each time point. The empty IV bag was weighed at study completion to calculate the actual IV Admixture solution volume in each bag.
The reconstituted solution was evaluated for color, clarity, and absence of insoluble material in the vial after every 30 seconds of mixing. Following addition of the reconstituted drug product solution to the IV bag, the resulting IV Admixture was evaluated for color, clarity, and absence of any insoluble material immediately after mixing and at each analytical time point. The amount (area %) of the degradation product doxorubicin was determined at each time point. […]

[1] = reconstituted in 50:50 ethanol:water, diluted in LR, two hour time point, average of two studies
[2] = reconstituted in LR, diluted in LR to ~2.4 mg/mL, Study #1, ambient temperature, 0 min
[3] = reconstituted in LR, diluted in LR to ~2.4 mg/mL, Study #1, ambient temperature, 30 min
[4] = reconstituted in LR, diluted in LR to ~2.4 mg/mL, Study #1, ambient temperature, 60 min
[5] = reconstituted in LR, diluted in LR to ~2.4 mg/mL, Study #1, ambient temperature, 120 min
[6] = reconstituted in LR, diluted in LR to ~2.4 mg/mL, Study #1, ambient temperature, 150 min
[7] = reconstituted in LR, diluted in LR to ~2.4 mg/mL, Study #1, ambient temperature, 240 min
[8] = reconstituted in LR, diluted in LR to ~2.4 mg/mL, Study #2, ambient temperature, 0 min
[9] = reconstituted in LR, diluted in LR to ~2.4 mg/mL, Study #2, ambient temperature, 30 min
[10] = reconstituted in LR, diluted in LR to ~2.4 mg/mL, Study #2, ambient temperature, 60 min
[11] = reconstituted in LR, diluted in LR to ~2.4 mg/mL, Study #2, ambient temperature, 90 min
[12] = reconstituted in LR, diluted in LR to ~2.4 mg/mL, Study #2, ambient temperature, 120 min
[13] = reconstituted in LR, diluted in LR to ~2.4 mg/mL, Study #2, ambient temperature, 150 min
[14] = reconstituted in SWFI (~10 mg/mL), diluted in LR IV bag to ~2.4 mg/mL, ambient temperature, 30 min
[15] = reconstituted in SWFI (~10 mg/mL), diluted in LR IV bag to ~2.4 mg/mL, ambient temperature, 60 min
[16] = reconstituted in SWFI (~10 mg/mL), diluted in LR IV bag to ~2.4 mg/mL, ambient temperature, 150 min
[17] = reconstituted in SWFI (~10 mg/mL), diluted in LR IV bag to ~2.4 mg/mL, ambient temperature, 240 min
[18] = reconstituted in ethanol:water, diluted in LR to ~2.4 mg/mL, Study #1, ambient temperature, 0 min
[19] = reconstituted in ethanol:water, diluted in LR to ~2.4 mg/mL, Study #1, ambient temperature, 30 min
[20] = reconstituted in ethanol:water, diluted in LR to ~2.4 mg/mL, Study #1, ambient temperature, 60 min
[21] = reconstituted in ethanol:water, diluted in LR to ~2.4 mg/mL, Study #1, ambient temperature, 90 min
[22] = reconstituted in ethanol:water, diluted in LR to ~2.4 mg/mL, Study #1, ambient temperature, 120 min
[23] = reconstituted in ethanol:water, diluted in LR to ~2.4 mg/mL, Study #1, ambient temperature, 150 min
[24] = reconstituted in ethanol:water, diluted in LR to ~2.4 mg/mL, Study #2, ambient temperature, 0 min
[25] = reconstituted in ethanol:water, diluted in LR to ~2.4 mg/mL, Study #2, ambient temperature, 30 min
[26] = reconstituted in ethanol:water, diluted in LR to ~2.4 mg/mL, Study #2, ambient temperature, 60 min
[27] = reconstituted in ethanol:water, diluted in LR to ~2.4 mg/mL, Study #2, ambient temperature, 120 min
[28] = reconstituted in ethanol:water, diluted in LR to ~2.4 mg/mL, Study #2, ambient temperature, 150 min
[29] = reconstituted in ethanol:water, diluted in LR to ~2.4 mg/mL, Study #2, ambient temperature, 240 min

With COc1cccc2c1C(=O)c1c(O)c3c(c(O)c1C2=O)C[C@@](O)(/C(CO)=N/NC(=O)CCCCCN1C(=O)C=CC1=O)C[C@@H]3O[C@H]1C[C@H](N)[C@H](O)[C@H](C)O1.Cl [DOXO-EMCH] the “stability of IV solutions in LR” value (drug product reconstituted in any of SWFI, LR, 50:50 ethanol/water, based on accumulation of doxorubicin) was “relatively stable for two hours or more”, the pH drop (reconstituted in 50:50 ethanol:water, diluted in LR, two studies) was 0.3-0.4 units and the average doxorubicin content [1] was 2.0%. The “average pH” value [1] was 5.9, the Doxorubicin [2] was 1.10 Area % and the pH [2] was 5.99. It also gave a Doxorubicin [3] of 1.28 Area %, a pH [3] of 5.87 and a Doxorubicin [4] of 1.74 Area %. It also gave a pH [4] of 5.85, a Doxorubicin [5] of 2.24 Area % and a pH [5] of 5.76. For the same molecule, the Doxorubicin [6] was 2.93 Area %, the pH [6] was 5.75 and the Doxorubicin [7] was 3.80 Area %. For the same molecule, the pH [7] was 5.67, the Doxorubicin [8] was 1.03 Area % and the pH [8] was 6.10. It also gave a Doxorubicin [9] of 1.04 Area %, a pH [9] of 5.98 and a Doxorubicin [10] of 1.68 Area %. For the same molecule, the pH [10] was 5.94, the Doxorubicin [11] was 1.67 Area % and the pH [11] was 5.89. The Doxorubicin [12] was 2.53 Area %, the pH [12] was 5.79 and the Doxorubicin [13] was 2.50 Area %. For the same molecule, the pH [13] was 5.77, the pH drop (reconstituted in LR, diluted in LR, two studies) was 0.2-0.3 units and the “average pH” value (reconstituted in LR, diluted in LR, two hour time point, average of two studies) was 5.8. The Doxorubicin (reconstituted in SWFI (~10 mg/mL), diluted in LR IV bag to ~2.4 mg/mL, ambient temperature, 0 min) was 1.23 Area %, the Doxorubicin [14] was 1.40 Area % and the pH [14] was 5.98. The Doxorubicin [15] was 1.88 Area %, the pH [15] was 5.84 and the Doxorubicin [16] was 3.23 Area %. For the same molecule, the pH [16] was 5.73, the Doxorubicin [17] was 4.23 Area % and the pH [17] was 5.62. The pH drop (reconstituted in SWFI, diluted in LR) was “about 0.4 units”, the Doxorubicin [18] was 1.0 Area % and the pH [18] was 6.22. It also gave a Doxorubicin [19] of 1.1 Area %, a pH [19] of 6.04 and a Doxorubicin [20] of 1.3 Area %. It also gave a pH [20] of 5.95, a Doxorubicin [21] of 1.7 Area % and a pH [21] of 5.89. It also gave a Doxorubicin [22] of 1.9 Area %, a pH [22] of 5.83 and a Doxorubicin [23] of 2.3 Area %. For the same molecule, the pH [23] was 5.82, the Doxorubicin [24] was 1.1 Area % and the pH [24] was 6.19. The Doxorubicin [25] was 1.3 Area %, the pH [25] was 6.05 and the Doxorubicin [26] was 1.5 Area %. It also gave a pH [26] of 5.99, a Doxorubicin [27] of 2.1 Area % and a pH [27] of 5.89. It also gave a Doxorubicin [28] of 2.3 Area %, a pH [28] of 5.87 and a Doxorubicin [29] of 3.4 Area %. The pH [29] was 5.80.
